Assay results as given in ChEMBL document CHEMBL1201862, “PubChem BioAssay data set” (2004).
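Step 1: Grow cells in 96-well plates. Step 2: Expose to compound for 48 hours at 5 concentrations. Step 3: Interpolate endpoints linearly; if unreached, use highest concentration. GI50 = concentration required for 50% inhibition of growth.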 Active and inactive are the calls of the source. Rule as the data show it: active = GI50 up to about 1.1 µM and inactive = higher.

Experiments:
Assay in all cases: growth of human tumour cells (NCI), 48 h
[1] = tested on: A498
[2] = tested on: A549
[3] = tested on: ACHN
[4] = tested on: COLO 205
[5] = tested on: HOP-62
[6] = tested on: LOX IMVI
[7] = tested on: M14
[8] = tested on: MOLT-4
[9] = tested on: NCI-H460
[10] = tested on: OVCAR-8
[11] = tested on: SF-268
[12] = tested on: SK-MEL-28
[13] = tested on: SK-OV-3
[14] = tested on: SNB-75
[15] = tested on: TK-10
[16] = tested on: UACC-257

Measured: GI50

CC(/C=C/c1ccccc1)=N\N=C(C)\C=C\c1ccccc1
inactive: [1] > 100 µM | [2] > 100 µM | [3] > 100 µM | [4] > 10 µM | [5] > 100 µM | [6] > 100 µM | [7] > 100 µM | [8] > 100 µM | [9] > 100 µM | [10] > 100 µM | [11] > 100 µM | [12] > 100 µM | [13] > 100 µM | [14] 42.2 µM | [15] > 100 µM | [16] > 100 µM

Cc1ccc(/C=C/C(=O)C(C)(C)CN2CCCCC2)cc1
inactive: [1] 6.24 µM | [2] 5.68 µM | [3] 11.2 µM | [4] 3.66 µM | [5] 15.7 µM | [6] 9.55 µM | [7] 7.31 µM | [8] 2.47 µM | [9] 8.28 µM | [10] 2.81 µM | [11] 15.7 µM | [12] 16.4 µM | [13] 11 µM | [14] 5.37 µM | [15] 11.6 µM | [16] 7.76 µM

CCCN(CCCC(NC(C)=O)C(=O)NCc1ccccc1)C(=O)N(C)N=O (stereo not given)
inactive: [1] > 100 µM | [2] > 100 µM | [3] > 100 µM | [4] > 100 µM | [5] > 100 µM | [6] > 100 µM | [7] > 100 µM | [8] 77.6 µM | [9] > 100 µM | [10] > 100 µM | [11] > 100 µM | [12] > 100 µM | [13] > 100 µM | [14] 41.3 µM | [15] > 100 µM | [16] > 100 µM

CN(C)CCNC(=O)c1ccc2ccc3cccnc3c2n1
inactive: [1] 14.3 µM | [2] 12.1 µM | [3] 7.45 µM | [4] 8.24 µM | [5] 19.2 µM | [6] 9.51 µM | [7] 16.4 µM | [8] 3.44 µM | [9] 6.18 µM | [10] 8.17 µM | [11] 16.2 µM | [12] 27.9 µM | [13] 19.5 µM | [14] 16 µM | [15] 9.35 µM | [16] 15.3 µM

Cc1c2ccccc2c(C)c2c3c(ccc12)C(=O)C=CC3=O
inactive: [1] > 100 µM | [2] > 83.9 µM | [3] 17.8 µM | [4] 15.7 µM | [5] > 44.5 µM | [6] 25.8 µM | [7] 30 µM | [8] 2.26 µM | [9] > 67.6 µM | [10] 14.9 µM | [11] 18.4 µM | [12] 30.7 µM | [13] > 60.5 µM | [14] > 63.5 µM | [15] 19.2 µM | [16] 16.3 µM
